Source: patent US20130064899A1, “SYNERGISTIC BIOCIDE COMPOSITION CONTAINING AT LEAST THREE BIOCIDE COMPONENTS” (THOR GMBH, priority 2010, published 2013)
Marks after values point to notes of the source that are not given here.

Columns and labels:
[1] = system: Candida lipolytica (DSM 3286); experiment: Minimum inhibitory concentration and synergy index in Sabouraud maltose broth, Candida lipolytica; type: cell-based; conditions: 72 hours at 25° C.; for SI (synergy index = Qa/QA + Qb/QB): below 1 = synergism
Procedure: (§1) A test was made of the synergism of a combination of BIT, zinc pyrithione or sodium pyrithione, and silver. The test organisms used were the yeasts Candida albicans (DSM 1386) and Candida lipolytica (DSM 3286). For the test, mixtures with different compositions of BIT, zinc pyrithione or sodium pyrithione, and silver were prepared and were tested for their activity on Candida albicans and Candida lipolytica.
(§2) The individual actives or actives mixtures were mixed in serial concentration series with nutrient broth (Sabouraud maltose broth) and inoculated with the respective test organisms. The cell density in the overall batch was in each case 10^6 microbes per ml.
(§3) The incubation time was 72 hours at 25° C. on a shaker at 120 rpm. This was followed by inspection for growth of Candida albicans and Candida lipolytica.
(§4) This method was used to determine the minimum inhibitory concentrations (MICS) of the combination Ag+BIT and ZnPy or NaPy, with Ag and BIT always being present in a 1:20 ratio. The MIC is the concentration at which there is no longer any hazing of the nutrient solution.
(§5) The synergism which occurred was represented numerically by calculation of the synergy index (SI). The calculation was made according to the common method of F. C. Kull et al., Applied Microbiology, vol. 9 (1961), p. 538. The SI variant was given by the following formula:
Synergy index SI=Qa/QA+Qb/QB
When this formula is applied to the BIT+pyrithione+silver biocide system tested here, the variables in the formula have the following definition: • Qa=Concentration of Ag+BIT in the Ag+BIT and ZnPy mixture • QA=Concentration of Ag+BIT as sole biocide • Qb=Concentration of ZnPy in the Ag+BIT and ZnPy mixture • QB=Concentration of ZnPy as sole biocide
If the synergy index has a value of more than 1, this means that antagonism is present. If the synergy index adopts a value of 1, this means that the two biocides have an additive effect.

[2] = system: Candida albicans (DSM 1386); experiment: Minimum inhibitory concentration and synergy index in Sabouraud maltose broth, Candida albicans; type: cell-based; conditions: 72 hours at 25° C.
Procedure: as §1, §2, §3, §4, §5
Synergy index SI=Qa/QA+Qb/QB […]

[3] = concentration of ZnPy in the Ag + BIT and ZnPy mixture, *2 = QB, ZnPy as sole biocide

| Compound | SI (synergy index = Qa/QA + Qb/QB) ([1]; NaPy series) | MIC Qb (NaPy) ([1]; concentration of NaPy in the Ag + BIT and NaPy mixture, *2 = QB, NaPy as sole biocide) | SI (synergy index = Qa/QA + Qb/QB) ([2]; below 1 = synergism) | MIC Qb (ZnPy) [2, 3] | SI (synergy index = Qa/QA + Qb/QB) ([1]; ZnPy series) | MIC Qb (ZnPy) [1, 3] |
| --- | --- | --- | --- | --- | --- | --- |
| [Na+].[O-][n+]1ccccc1[S-] [NaPy, sodium pyrithione] | 1.00 | 30*^2 ppm |  |  |  |  |
| zinc pyrithione [ZnPy] |  |  | 1.00 | 7.5*^2 ppm | 1.00 | 7.5*^2 ppm |
